Test results: patent publication US12485078B2, “Personal dental care product for caries treatment” (Credentis AG, priority 2016, dated 2025)

Legend:
[1] = pH at which the peptide starts to undergo self-assembly; type: physicochemical; settings: in solution
Text: As used herein, the pH at which the self-assembling peptide starts to undergo self-assembly refers to the pH below which a significant extent of self-assembly of the peptides in solution is observed, which means that at least about 25%, about 30%, about 35%, about 40%, about 45%, about 50%, about 55%, about 60%, about 65%, about 70%, about 75%, about 80%, about 85%, about 90%, about 95%, about 99% or even about 100% of the peptides found in the dental care product are assembled. In a preferred embodiment, at least about 25% of the peptides found in the dental care product are assembled below the pH at which the peptide starts to undergo self-assembly.
Further, the skilled person is aware of numerous methods to determine the pH at which a peptide of the present invention will start self-assembly at a given ionic strength. Suitable methods are denoted e.g. in a publication by Aggeli et al. (2003, J Am Chem Soc, 125, 9619-9628).

[2] = Penetration of P11-4 (200 ppm, spiked with 10 ppm ATTO647-P11-4, 25 mM TRIS) into artificial subsurface lesions, confocal microscopy; parameters: species or system human; key to presence of fluorescent P11-4 in lesion, 6 d / presence of fluorescent P11-4 in lesion, 1 min / presence of fluorescent P11-4 in lesion, 2 min / presence of fluorescent P11-4 in lesion, 5 min / presence of fluorescent P11-4 in lesion, 4 d: 1 = no or low presence; 4 = high presence of fluorescent P11-4; Average presence of P11-4: scale not given here; settings: for presence of fluorescent P11-4 in lesion, 1 min: 1 min incubation; for presence of fluorescent P11-4 in lesion, 2 min: 2 min incubation; for presence of fluorescent P11-4 in lesion, 5 min: 5 min incubation; for presence of fluorescent P11-4 in lesion, 6 d: washing in H2O; for presence of fluorescent P11-4 in lesion, 4 d: washing in Remin. buffer
Method: Creation of artificial lesions on extracted human molar teeth was performed as described by Lo et al. 2010 (J Dent. 38(4):352-359). To define the position of the demineralized subsurface area (i.e., artificial carious lesion or white spot), the tooth was covered with colourless nail varnish, leaving a window of approximately 4×4 mm. The tooth was placed in demineralization buffer (2.2 mM CaCl2, 2.2 mM NaH2PO4, 50 mM acetic acid; pH adjusted with 1 M KOH to 4.4) for 3 d at 37° C. To ensure that all pores are open, as in a typical active caries lesion, the resulting subsurface lesions were treated with 10 μL of 2% NaClO (incubation for 1 min), rinsed, and air-dried at room temperature.
• A 200 ppm (i.e., 200 μg/ml) solution of P11-4 (SEQ ID NO: 2), spiked with 10 ppm ATTO647-P11-4 (fluorescence labelled P11-4 (SEQ ID NO: 6): Ac-QQRFEWEFEQQSGSGC-(ATTO647)-NH2), i.e., 1:20, in 25 mM TRIS buffer was prepared at different pH, in particular, at 8.4 or 8.5 or 6.3, 6.5 or 6.8) • As specified in the table below, tooth were optionally pretreated, e.g., by incubation in human saliva for one day (about 24 hours), optionally followed by 5 min sonication (258 hz with a sonic toothbrush, Sonicare Diamond Clean® (Philips)) or by immersion in 2% NaClO for 1 min. • Tooth were immersed in the P11-4 solution for a defined period of time, 1, 2 or 5 min, and then removed and washed in water for 10 min or in remineralization buffer (2 mM Ca(NO3), 1.2 mM KHPO4, and 60 mM Tris/HCl, pH adjusted to 7.4 with 1 M KOH) for 4 days and/or 6 days. • Confocal assessment after 1, 2 or 5 min incubation was carried out while the teeth were in P11-4 solution, and optionally, after washing in water or in remineralization buffer after 10 min or 4 or 6 days. c) Confocal Microscopy
Samples were placed in a μ-slide I (ibidi, Martinsried) in dest. water and analyzed by a confocal laser microscope (Olympus IX81). The recorded stack of four 2-dimensional images each projected the lesion volume of 51.4 μm thickness, giving a total assessment depth of 205 μm (objective: UPLSAPO 20×/NA 0.75; helium-neon gas laser; excitation: 633 nm and emission: 668 nm). Images were analyzed by Olympus software (FluoView FV1000).

[3] = 200 ppm in a slightly basic buffer
[4] = tooth 1, pH 8.4, no pretreatment
[5] = tooth 2, pH 8.4, no pretreatment
[6] = tooth 3, pH 6.3, saliva pre-incubation
[7] = tooth 4, pH 6.3, no pretreatment
[8] = tooth 5, pH 8.5, saliva pre-incubation
[9] = tooth 10, pH 8.5, no pretreatment
[10] = tooth 11, pH 8.5, saliva pre-incubation
[11] = tooth 12, pH 6.5, no pretreatment
[12] = tooth 13, pH 6.8, saliva pre-incubation
[13] = tooth ZR1, pH 8.5, sonification pretreatment
[14] = tooth ZR2, pH 8.5, saliva pre-incubation then NaClO
[15] = tooth ZR3, pH 8.5, saliva pre-incubation then sonification
[16] = tooth ZR4, pH 8.5, saliva pre-incubation

Substance: CH3CO-QQRFEWEFEQQ-NH2 (Ac-QQRFEWEFEQQ-NH2) [terminally modified P11-4]
- pH at which the self-assembling peptides start to undergo self-assembly [1]: about 7.5

Substance: Ac-QQRFEWEFEQQSGSGC-(ATTO647)-NH2 (Ac-QQRFEWEFEQQSGSGC(ATTO647)-NH2) [fluorescent P11-4]
- diffusion of monomeric peptide into artificial carious lesions [2, 3]: can diffuse into the artificial carious lesions and form a stable network there
- peptide detected outside the lesions [2, 3]: No significant amounts
- effect of pre-incubation with human saliva (pellicle) on presence of fluorescent peptide on the tooth or in the lesions ([2]; pH 8.5, 1, 2, or 5 min, teeth 11, 5 and ZR4, versus no pre-incubation): significantly lower presence
- Average presence of P11-4 [2, 4]: 2.7
- presence of fluorescent P11-4 in lesion, 1 min [2, 4]: 4
- presence of fluorescent P11-4 in lesion, 2 min [2, 4]: 2
- presence of fluorescent P11-4 in lesion, 5 min [2, 4]: 2
- presence of fluorescent P11-4 in lesion, 1 min [2, 5]: 1
- presence of fluorescent P11-4 in lesion, 2 min [2, 5]: 3
- presence of fluorescent P11-4 in lesion, 5 min [2, 5]: 3
- Average presence of P11-4 ([2]; tooth 2, pH 8.4, no pretreatment, H2O wash): 2.0
- presence of fluorescent P11-4 in lesion, 6 d [2, 5]: 1
- presence of fluorescent P11-4 in lesion, 1 min [2, 6]: 1
- presence of fluorescent P11-4 in lesion, 2 min [2, 6]: 1
- presence of fluorescent P11-4 in lesion, 5 min [2, 6]: 1
- Average presence of P11-4 ([2]; tooth 3, pH 6.3, saliva pre-incubation, H2O wash): 1.0
- presence of fluorescent P11-4 in lesion, 6 d [2, 6]: 1
- presence of fluorescent P11-4 in lesion, 1 min [2, 7]: 1
- presence of fluorescent P11-4 in lesion, 2 min [2, 7]: 1
- presence of fluorescent P11-4 in lesion, 5 min [2, 7]: 2
- Average presence of P11-4 ([2]; tooth 4, pH 6.3, no pretreatment, H2O wash): 1.3
- presence of fluorescent P11-4 in lesion, 6 d [2, 7]: 1
- Average presence of P11-4 [2, 8]: 1.3
- presence of fluorescent P11-4 in lesion, 1 min [2, 8]: 2
- presence of fluorescent P11-4 in lesion, 2 min [2, 8]: 1
- presence of fluorescent P11-4 in lesion, 5 min [2, 8]: 1
- presence of fluorescent P11-4 in lesion, 1 min [2, 9]: 1
- presence of fluorescent P11-4 in lesion, 2 min [2, 9]: 4
- presence of fluorescent P11-4 in lesion, 5 min [2, 9]: 4
- Average presence of P11-4 ([2]; tooth 10, pH 8.5, no pretreatment, Remin. buffer wash): 2.8
- presence of fluorescent P11-4 in lesion, 4 d [2, 9]: 2
- presence of fluorescent P11-4 in lesion, 1 min [2, 10]: 1
- presence of fluorescent P11-4 in lesion, 2 min [2, 10]: 1
- presence of fluorescent P11-4 in lesion, 5 min [2, 10]: 1
- Average presence of P11-4 ([2]; tooth 11, pH 8.5, saliva pre-incubation, Remin. buffer wash): 1.0
- presence of fluorescent P11-4 in lesion, 4 d [2, 10]: 1
- presence of fluorescent P11-4 in lesion, 1 min [2, 11]: 2
- presence of fluorescent P11-4 in lesion, 2 min [2, 11]: 3.5
- presence of fluorescent P11-4 in lesion, 5 min [2, 11]: 2
- Average presence of P11-4 ([2]; tooth 12, pH 6.5, no pretreatment, Remin. buffer wash): 2.1
- presence of fluorescent P11-4 in lesion, 4 d [2, 11]: 1
- presence of fluorescent P11-4 in lesion, 1 min [2, 12]: 1
- presence of fluorescent P11-4 in lesion, 2 min [2, 12]: 2
- presence of fluorescent P11-4 in lesion, 5 min [2, 12]: 2
- Average presence of P11-4 ([2]; tooth 13, pH 6.8, saliva pre-incubation, Remin. buffer wash): 1.5
- presence of fluorescent P11-4 in lesion, 4 d [2, 12]: 1
- Average presence of P11-4 [2, 13]: 4.0
- presence of fluorescent P11-4 in lesion, 1 min [2, 13]: 4
- presence of fluorescent P11-4 in lesion, 2 min [2, 13]: 4
- presence of fluorescent P11-4 in lesion, 5 min [2, 13]: 4
- Average presence of P11-4 [2, 14]: 3.7
- presence of fluorescent P11-4 in lesion, 1 min [2, 14]: 3
- presence of fluorescent P11-4 in lesion, 2 min [2, 14]: 4
- presence of fluorescent P11-4 in lesion, 5 min [2, 14]: 4
- Average presence of P11-4 [2, 15]: 2.3
- presence of fluorescent P11-4 in lesion, 1 min [2, 15]: 1
- presence of fluorescent P11-4 in lesion, 2 min [2, 15]: 3
- presence of fluorescent P11-4 in lesion, 5 min [2, 15]: 3
- Average presence of P11-4 [2, 16]: 1.3
- presence of fluorescent P11-4 in lesion, 1 min [2, 16]: 1
- presence of fluorescent P11-4 in lesion, 2 min [2, 16]: 1
- presence of fluorescent P11-4 in lesion, 5 min [2, 16]: 2
